“Also recorded” adds a separate entry of the source.
Assays:
MCF-7 xenograft = assay: MCF-7 xenograft, OKI-179 in combination with tamoxifen; conditions: OKI-179 60 mg/kg PO 5 days on 2 days off, tamoxifen 25 mg/kg SQ 3 times a week
HDAC-4 = conditions: read-out: IC50 HDAC-4; cell-free biochemical assay, previously published; cited from earlier work
HDAC-3 = conditions: read-out: IC50 HDAC-3; cell-free biochemical assay, previously published; cited from earlier work
[1] = Plasma persistence of OKI-006 across preclinical models; format: in vivo; conditions: depending on the dose and model (mouse vs. rat vs. dog)
HDAC-9 = conditions: read-out: IC50 HDAC-9; cell-free biochemical assay, previously published; cited from earlier work
HDAC-1 = conditions: read-out: IC50 HDAC-1; cell-free biochemical assay, previously published; cited from earlier work
[2] = Plasma and tumor pharmacokinetics of OKI-005 in HCT-116 tumor-bearing mice; format: in vivo, BALB/c nude mice
HDAC-7 = conditions: read-out: IC50 HDAC-7; cell-free biochemical assay, previously published; cited from earlier work
HDAC-2 = conditions: read-out: IC50 HDAC-2; cell-free biochemical assay, previously published; cited from earlier work
HDAC-5 = conditions: read-out: IC50 HDAC-5; cell-free biochemical assay, previously published; cited from earlier work
HDAC-6 = conditions: read-out: IC50 HDAC-6; cell-free biochemical assay, previously published; cited from earlier work
HDAC-8 = conditions: read-out: IC50 HDAC-8; cell-free biochemical assay, previously published; cited from earlier work
advanced solid tumors = conditions: continuous dosing, patients with advanced solid tumors; cited from earlier work
MDA-MB-231 xenograft [3] = assay: MDA-MB-231 xenograft efficacy study; format: in vivo, BALB/c nude mice; conditions: OKI-179 40-80 mg/kg PO daily, 120 mg PO every other day
acetylated histone H3 = assay: MDA-MB-231 xenograft pharmacodynamics; format: in vivo, nude mice; conditions: OKI-179 40, 60 or 80 mg/kg PO daily x 3 or 10 days
HCT-116 xenografts = assay: HCT-116 xenograft efficacy study; format: in vivo; conditions: for TGI compared to vehicle control: HCT-116 xenograft
MDA-MB-231 xenograft [4] = conditions: addition of OKI-179 to nivolumab; cited from earlier work
Hs578T cell line = assay: SRB proliferation assay; format: cell-based, human; conditions: read-out: IC50 proliferation, 72 hours
[5] = tested on: acetyl-histone H3 and acetyl H3K9; assay: HCT-116 xenograft pharmacodynamics; format: in vivo, BALB/c nude mice
HCC1395 cell line = assay: SRB proliferation assay; format: cell-based, human; conditions: read-out: IC50 proliferation, 72 hours
CAL-120 cells = assay: Cell cycle analysis; format: cell-based, human; conditions: CAL-120, 24 hours, 0-200 nM
[6] = tested on: luciferase-labeled MDA-MB-231 cells; assay: MDA-MB-231 luciferase-labeled metastasis model; format: in vivo, BALB/c nude mice; conditions: OKI-005 10 mg/kg IP 3 times a week for 30 days
CAL-120 cell line = assay: SRB proliferation assay; format: cell-based, human; conditions: read-out: IC50 proliferation; CAL-120, SRB, 72 hours
MDA-MB-231 cell line = assay: SRB proliferation assay; format: cell-based, human; conditions: read-out: IC50 proliferation; MDA-MB-231, SRB, 72 hours
[7] = tested on: sensitive and resistant TNBC cell lines; assay: Immunoblotting of protein acetylation and p21; format: cell-based, human; conditions: 24 hours, immunoblot

With `CC/C(=C(\c1ccccc1)c1ccc(OCCN(C)C)cc1)c1ccccc1` [tamoxifen, reference compound] the tumor growth inhibition (MCF-7 xenograft) was “active”.

In the case of `CC(C)[C@@H]1NC(=O)C(C)(C)NC(=O)c2csc(n2)CNC(=O)C[C@@H](/C=C/CCS)OC1=O` [OKI-006], the IC50 (HDAC-4) is given as over 1000 nM, the IC50 (HDAC-3) is given as 2 nM and the “persistence of plasma concentrations > 100 nM following a single dose” value [1] is given as 4 to 12 h. For the same molecule, the IC50 (HDAC-9) was over 1000 nM, the IC50 (HDAC-1) was 1.2 nM and the “tumor concentrations versus plasma levels” value ([2]; OKI-006 after single dose of OKI-005 PO or IP) was “exceeded plasma levels at all time points”. For the same molecule, the IC50 (HDAC-7) was over 1000 nM, the IC50 (HDAC-2) was 2.4 nM and the IC50 (HDAC-5) was over 1000 nM. For the same molecule, the IC50 (HDAC-6) was 47 nM and the IC50 (HDAC-8) was 47 nM.

In the case of `CC(C)[C@H](N)C(=O)SCC/C=C/[C@@H]1CC(=O)NCc2nc(cs2)C(=O)NC(C)(C)C(=O)N[C@@H](C(C)C)C(=O)O1` [OKI-179], the dose-limiting toxicity (advanced solid tumors) is listed as “dose-limiting thrombocytopenia”, the tumor growth inhibition (MDA-MB-231 xenograft [3]) is listed as “statistically significant tumor growth inhibition at higher doses” and the “acetylated histone H3 in tumor” value (acetylated histone H3) is listed as “increase in acetylated histone H3”. The “body weight / tolerability” value (HCT-116 xenografts; OKI-179 100 mg/kg oral daily, animals) was “weight loss”, the “tumor growth at day 24” value (HCT-116 xenografts; OKI-179 40-80 mg/kg PO daily and 120 mg PO every other day, all doses and schedules) was “statistically significant decreased tumor growth” and the tumor growth inhibition (MCF-7 xenograft) was “active”. The “tumor growth inhibition and T-cell activation” value (MDA-MB-231 xenograft [4]) was “improved tumor growth inhibition and increased T-cell activation”.

In the case of `CCCCCCCC(=O)SCC/C=C/[C@@H]1CC(=O)NCc2nc(cs2)C(=O)NC(C)(C)C(=O)N[C@@H](C(C)C)C(=O)O1` [OKI-005], the IC50 (Hs578T cell line) is reported as over 500 nM, the “acetyl-histone H3 and acetyl H3K9 in tumor” value ([5]; 1 hour post-dose, HCT-116 xenograft) is reported as “dose-dependent increase” and the “time of highest acetyl-Histone H3 and acetyl H3K9 levels post-treatment” value ([5]; OKI-005 100 mg/kg) is reported as 4 h. The “time of return of acetyl-Histone H3 and acetyl H3K9 to baseline post-dose” value ([5]; OKI-005 100 mg/kg) was 24 h, the IC50 (HCC1395 cell line) was over 500 nM and the “cell cycle effect (G1 and S phase fraction)” value (CAL-120 cells) was “trend towards an increase in G1 and a decrease in the cell fraction in S phase”. The “primary tumor growth and metastasis (number of thoracic metastasis)” value [6] was “statistically significant inhibition”, the IC50 (CAL-120 cell line) was under 100 nM and the IC50 (MDA-MB-231 cell line) was under 100 nM. For the same molecule, the “acetylated histone-H3 and p21” value ([7]; 0-500 nM) was “concentration-dependent increase”, the “acetylated α-tubulin” value ([7]; highest dose levels) was “small increase” and the half-life in plasma ([2]; PO dosing of OKI-005, metabolite OKI-006 measured, HCT-116 tumor-bearing mice) was under 2 h. The “TGI compared to vehicle control” value (HCT-116 xenografts; OKI-005 30 mg/kg, P = 0.025) was 28.1%, the “body weight / tolerability” value (HCT-116 xenografts; OKI-005 100 mg/kg PO daily, mice, 100 mg/kg) was “weight loss related to treatment requiring dose reduction; also recorded: dose-limiting treatment-related toxicity” and the “TGI compared to vehicle control” value (HCT-116 xenografts; OKI-005 100 mg/kg, P < 0.001) was 75.6%.

Source: publication PMC9600708 (Molecular cancer therapeutics, 2022)
